Test results from article PMC2812926 (Journal of medicinal chemistry, 2008).

How the values were obtained:
HIV-1MDR-G = type: cell-based; settings: PHA-PBMC
HIV-1MDR-TM = type: cell-based; settings: PHA-PBMC
HIV-1MDR-MM = type: cell-based; settings: PHA-PBMC
MDR/A = type: cell-based, HIV-1; settings: PHA-PBMC
HIV-1MDR-JSL = type: cell-based; settings: PHA-PBMC
MDR/C = type: cell-based, HIV-1; settings: PHA-PBMC
HIV-1MDR-B = type: cell-based; settings: PHA-PBMC
[1] = test system: HIV-1ERS104pre (wild-type); assay: Antiviral assay in PHA-PBMC, p24 Gag production, HIV-1ERS104pre; type: cell-based; settings: PBMC versus MT-2 cells
HIV-1 protease = HIV-1 protease (Human immunodeficiency virus type 1 group M subtype B, UniProt P04585); assay: HIV-1 protease enzyme inhibitory assay; type: biochemical

| SMILES | number in parentheses: fold change of IC50 versus ERS104pre (wild-type) (HIV-1MDR-G) | number in parentheses: fold change of IC50 versus ERS104pre (wild-type) (HIV-1MDR-TM) | number in parentheses: fold change of IC50 versus ERS104pre (wild-type) (HIV-1MDR-MM) | number in parentheses: fold change of IC50 versus ERS104pre (wild-type) (MDR/A) | number in parentheses: fold change of IC50 versus ERS104pre (wild-type) (HIV-1MDR-JSL) | number in parentheses: fold change of IC50 versus ERS104pre (wild-type) (MDR/C) | number in parentheses: fold change of IC50 versus ERS104pre (wild-type) (HIV-1MDR-B) | potency change compared to 3i (enzyme Ki) (HIV-1 protease) | further results |
| --- | --- | --- | --- | --- | --- | --- | --- | --- | --- |
| CC(C)(C)NC(=O)[C@@H]1CN(Cc2cccnc2)CCN1C[C@@H](O)C[C@@H](Cc1ccccc1)C(=O)N[C@H]1c2ccccc2C[C@H]1O.O [IDV, Indinavir] | 11 | > 38 | > 38 | > 38 | > 38 | > 38 | > 38 |  |  |
| COc1ccc(S(=O)(=O)N(CC(C)C)C[C@@H](O)[C@H](Cc2ccccc2)NC(=O)O[C@@H]2CCOCOC2)cc1 [Inhibitor 3d, (1S,2R)-{1-Benzyl-2-hydroxy-3-[isobutyl(4-methoxybenzenesulfonyl)amino]propyl}carbamic acid (1R)-3,5-dioxacycloheptan-1-yl ester] |  |  |  |  |  |  |  |  | factor by which values in PBMCs were greater than those with MT-2 cells [1]: about 4 |
| COc1ccc(S(=O)(=O)N(CC(C)C)C[C@@H](O)[C@H](Cc2ccccc2)NC(=O)O[C@@H]2CCCCOC2)cc1 [Inhibitor 3e, (1S,2R)-{1-Benzyl-2-hydroxy-3-[isobutyl(4-methoxybenzenesulfonyl)amino]propyl}carbamic acid (R)-oxepan-3-yl ester] |  |  |  |  |  |  |  |  | reduction in enzymatic inhibitory potency with respect to 3d (HIV-1 protease): ~30 fold |
| COc1ccc(S(=O)(=O)N(CC(C)C)C[C@@H](O)[C@H](Cc2ccccc2)NC(=O)O[C@H]2CCCOCC2)cc1 [Inhibitor 3f, (1S,2R)-{1-Benzyl-2-hydroxy-3-[isobutyl(4-methoxybenzenesulfonyl)amino]propyl}carbamic acid (S)-oxepan-4-yl ester] |  |  |  |  |  |  |  |  | reduction in enzymatic inhibitory potency with respect to 3d (HIV-1 protease): ~30 fold |
| COc1ccc(S(=O)(=O)N(CC(C)C)C[C@@H](O)[C@H](Cc2ccccc2)NC(=O)OC2COCOC2)cc1 [Inhibitor 3h, (1S,2R)-{1-Benzyl-2-hydroxy-3-[isobutyl(4-methoxybenzenesulfonyl)amino]propyl}carbamic acid 1,3-dioxan-5-yl ester] | 50 | 10 | 5 | 2 | 55 | 27 | 38 |  |  |
| COc1ccc(S(=O)(=O)N(CC(C)C)C[C@@H](O)[C@H](Cc2ccccc2)NC(=O)OC2COCCOCOCCOC2)cc1 [Inhibitor 3k, (1S,2R)-{1-Benzyl-2-hydroxy-3-[isobutyl(4-methoxybenzenesulfonyl)amino]propyl}carbamic acid 3,6,8,11-tetraoxacyclododecan-1-yl ester] |  |  |  |  |  |  |  | more than 2 fold | potency enhancement compared to inhibitor 3j (enzyme Ki) (HIV-1 protease; compared to 3j): 5 fold |
| COc1ccc(S(=O)(=O)N(CC(C)C)C[C@@H](O)[C@H](Cc2ccccc2)NC(=O)OC2COCCS(=O)(=O)CCOC2)cc1 [Inhibitor 3l, (1S,2R)-{1-Benzyl-2-hydroxy-3-[isobutyl(4-methoxybenzenesulfonyl)amino]propyl}carbamic acid 3,9-dioxa-6-thiacyclodecan-1-yl 6,6-dioxide ester] |  |  |  |  |  |  |  | 9 fold |  |
| COc1ccc(S(=O)(=O)N(CC(C)C)C[C@@H](O)[C@H](Cc2ccccc2)NC(=O)OC2COCCN(C)CCOC2)cc1 [Inhibitor 3m, (1S,2R)-{1-Benzyl-2-hydroxy-3-[isobutyl(4-methoxybenzenesulfonyl)amino]propyl}carbamic acid N-methyl-1,7-dioxa-4-azocyclodecan-9-yl ester] |  |  |  |  |  |  |  | no change in inhibitory activity |  |
| CC(C)c1nc(CN(C)C(=O)N[C@H](C(=O)N[C@@H](Cc2ccccc2)C[C@H](O)[C@H](Cc2ccccc2)NC(=O)OCc2cncs2)C(C)C)cs1 [RTV] | > 29 | > 29 | > 29 | > 29 | > 29 | > 29 | > 29 |  |  |
